The source of these data is US9102642B2, “Herbicidally active cyclic diones and derivatives thereof, processes for their preparation, compositions, and methods of controlling weeds” (Syngenta Limited, priority 2009, dated 2015).

Assay in all cases: Pre-emergence herbicidal activity, glasshouse pot test
Format in all cases: in vivo
Details in all cases: 312 h, Rate 250 g/ha, evaluated after 13 days, 100=total damage to plant, 0=no damage to plant

For experiment [1], the system named is Echinochloa crus-galli (ECHCG). On the procedure: (§1) Seeds of a variety of test species were sown in standard soil in pots. After cultivation for one day (pre-emergence) or after 8 days cultivation (post-emergence) under controlled conditions in a glasshouse (at 24/16° C., day/night; 14 hours light; 65% humidity), the plants were sprayed with an aqueous spray solution derived from the formulation of the technical active ingredient in acetone/water (50:50) solution containing 0.5% Tween 20 (polyoxyethelyene sorbitan monolaurate, CAS RN 9005-64-5). The test plants were then grown in a glasshouse under controlled conditions in a glasshouse (at 24/16° C., day/night; 14 hours light; 65% humidity) and watered twice daily. After 13 days for pre and post-emergence, the test was evaluated (100=total damage to plant; 0=no damage to plant). Test Plants: Lolium perenne (LOLPE), Alopecurus myosuroides (ALOMY), Echinochloa crus-galli (ECHCG), and Avena fatua (AVEFA). Pre-Emergence Activity

For another experiment, the system named is Avena fatua (AVEFA). How it is done: as §1
A further experiment has as its system Lolium perenne (LOLPE). On the procedure: as §1
In experiment [2] the test system is Alopecurus myosuroides (ALOMY). On the procedure: as §1

On to `CCc1cc(Oc2ccc(Cl)cc2Cl)ccc1C1=C(O)C(C)(C)OC(C)(C)C1=O` [Compound A-2], for which the pest or weed control at 250 g/ha came to 50% in experiment [1], 0% with Avena fatua (AVEFA), 70% in the experiment on Lolium perenne (LOLPE) and 20% in experiment [2].

In the case of `CCc1cc(Oc2ccc(Cl)cc2F)ccc1C1=C(O)C(C)(C)OC(C)(C)C1=O` [Compound A-3], the pest or weed control at 250 g/ha was 20% in experiment [1], 10% with Avena fatua (AVEFA), 20% in the experiment with Lolium perenne (LOLPE) and 20% in experiment [2].

Regarding `CCc1cc(Oc2ccc(Cl)cc2)ccc1C1=C(O)C(C)(C)OC(C)(C)C1=O` [Compound A-4], the pest or weed control at 250 g/ha worked out at 60% in experiment [1], 20% in the experiment with Avena fatua (AVEFA), 60% in the experiment with Lolium perenne (LOLPE) and 20% in experiment [2].

Regarding `CCc1cc(Oc2ccc(Br)cc2)ccc1C1=C(O)C(C)(C)OC(C)(C)C1=O` [Compound A-5], the pest or weed control at 250 g/ha stood at 40% in experiment [1], 10% with Avena fatua (AVEFA), 30% in the experiment with Lolium perenne (LOLPE) and 10% in experiment [2].

For `CCc1cc(Oc2ccc(F)cc2)ccc1C1=C(O)C(C)(C)OC(C)(C)C1=O` [Compound A-6], the pest or weed control at 250 g/ha in experiment [1] is 100%; in the experiment on Avena fatua (AVEFA), 30%; in the experiment with Lolium perenne (LOLPE), 100%; in experiment [2], 60%.

As to `CCc1cc(Oc2ccc(Cl)c(F)c2)ccc1C1=C(O)C(C)(C)OC(C)(C)C1=O` [Compound A-7, 4-[4-(4-chloro-3-fluorophenoxy)-2-ethylphenyl]-2,2,6,6-tetramethylpyran-3,5-dione], the pest or weed control at 250 g/ha in experiment [1] is 60%; in the experiment with Avena fatua (AVEFA), 20%; in the experiment with Lolium perenne (LOLPE), 80%; in experiment [2] it was 40%.

With `CCc1cc(Oc2ncc(Cl)cc2F)ccc1C1=C(O)C(C)(C)OC(C)(C)C1=O` [Compound A-8], the pest or weed control at 250 g/ha in experiment [1] is 100%; in the experiment with Avena fatua (AVEFA), 30%; with Lolium perenne (LOLPE), 100%; in experiment [2], 40%.

Consider `CCc1cc(Oc2ccc(C(F)(F)F)cn2)ccc1C1=C(O)C(C)(C)OC(C)(C)C1=O` [Compound A-9, 4-[4-(5-trifluoromethylpyridin-2-yloxy)-2-ethylphenyl]-2,2,6,6-tetramethylpyran-3,5-dione], for which the pest or weed control at 250 g/ha in experiment [1] worked out at 30%; in the experiment on Avena fatua (AVEFA) it was 0%; with Lolium perenne (LOLPE), 60%; in experiment [2], 20%.

Turning to `CCc1cc(Oc2cnc3cc(Cl)ccc3n2)ccc1C1=C(O)C(C)(C)OC(C)(C)C1=O` [Compound A-10, 4-[4-(6-chloroquinoxalin-2-yloxy)-2-ethylphenyl]-2,2,6,6-tetramethylpyran-3,5-dione], the pest or weed control at 250 g/ha amounted to 100% in experiment [1], 90% in the experiment on Avena fatua (AVEFA), 100% in the experiment on Lolium perenne (LOLPE) and 70% in experiment [2].

`CCc1cc(Oc2ncc(C(F)(F)F)cc2Cl)ccc1C1=C(O)C(C)(C)OC(C)(C)C1=O` [Compound A-11]: the pest or weed control at 250 g/ha in experiment [1] is 100%; in the experiment on Avena fatua (AVEFA), 90%; in the experiment with Lolium perenne (LOLPE), 100%; in experiment [2], 90%.

Turning to `Cc1cc(Oc2cnc3cc(Cl)ccc3n2)cc(C)c1C1=C(O)C(C)(C)OC(C)(C)C1=O` [Compound A-14], the pest or weed control at 250 g/ha was 20% in experiment [1], 10% with Avena fatua (AVEFA), 50% with Lolium perenne (LOLPE) and 30% in experiment [2].

As for `Cc1cc(Oc2ncccc2Cl)cc(C)c1C1=C(O)CCCC1=O` [Compound A-16], the pest or weed control at 250 g/ha (in experiment [1]; in the experiment with Avena fatua (AVEFA); in the experiment with Lolium perenne (LOLPE); in experiment [2]) was 0% in each case.
